Test results published in patent publication US8765447B2, “Fungal strain Beauveria sp. MTCC 5184 and a process for the preparation of enzymes therefrom” (Council of Scientific and Industrial Research, priority 2010, dated 2014).

Experiments:
Assay type in all cases: biochemical
[1] = tested on: purified protease of Beauveria sp MTCC 5184; experiment: Stability of purified protease in organic solvents at 50° C.; settings: 25% (v/v) solvent
Description: Following organic solvents were used: acetone, 1-butanol, benzene, chloroform, dimethylsulphoxide, ethanol, hexane, isopropanol and methanol. […] Samples were removed at different time intervals and residual activity was estimated.

[2] = tested on: protease of Beauveria sp MTCC 5184; experiment: Effect of inhibitors on protease activity
Procedure: (§1) The protease activity has been expressed in terms of tyrosine equivalents. The reaction mixture contained an aliquot of suitably diluted enzyme solution and 10 mg Hammerstein casein in 0.1 M sodium carbonate buffer pH 9.0 in a total volume of 2 ml. After incubation at 50° C. for 10 min, the reaction was terminated by the addition of 3 ml of 5% trichloroacetic acid (acidified with concentrated hydrochloric acid). The precipitate formed was filtered through Whatman No. 1 filter paper after standing for 30 min at room temperature. The absorbance of trichloroacetic acid soluble fraction was measured at 280 nm. Micrograms of tyrosine produced was calculated from a pre-calibrated graph of absorbance at 280 nm against tyrosine concentration and the units are expressed as […] of tyrosine released per minute under assay conditions.
This example illustrates the effect of inhibitors on protease activity of Beauveria sp MTCC 5184. Following inhibitors were studied: phenylmethylsulfonyl fluoride (PMSF), ethylene-diaminetetraacetic acid (EDTA), iodoacetic acid, N-tosyl-L-phenylalanine chloromethyl ketone (TPCK), N-tosyl-L-lysine chloromethyl ketone (TLCK), Dimethylsulphoxide (DMSO) and Benzamidine. […] Protease without inhibitor served as control.

[3] = tested on: protease of Beauveria sp MTCC 5184; experiment: Effect of metal ions on protease activity; settings: for Residual Activity (%): 28° C., 30 min; for inhibition: 1 mM
Procedure: as §1
This example illustrates the effect of metal ions on protease activity of Beauveria sp MTCC 5184.

[4] = tested on: protease of Beauveria sp MTCC 5184; experiment: Substrate protection by casein against inhibition by PMSF, NBS and WRK
Description: The example illustrates the study of substrate protection by casein on inhibition of Beauveria sp MTCC 5184 protease by PMSF, WRK and NBS. […] Increase in casein concentration decreased the inhibition by both the inhibitors indicating substrate protection by casein (Table 11). This indicates the presence of serine, aspartic acid and tryptophan at the active site of protease.

[5] = tested on: protease of Beauveria sp MTCC 5184; experiment: Modification of tryptophan of protease with NBS; settings: 28° C., 30 min
Procedure: This example illustrates the modification of tryptophan with N-bromosuccinimide (NBS) and its effect on protease activity. […] Protease incubated without NBS served as the control.

[6] = tested on: purified protease of Beauveria sp MTCC 5184; experiment: Effect of β-mercapto ethanol and Triton X-100 on protease activity; settings: 30 min
Description: This example illustrates the effect of β-mercapto ethanol (BME) and Triton X-100 on protease activity of Beauveria sp MTCC 5184.

[7] = tested on: protease of Beauveria sp MTCC 5184; experiment: Modification of aspartic acid residue of protease by WRK; settings: 28° C., 30 min
Procedure: This example illustrates the modification of aspartic acid residue of protease by Woodward's reagent (WRK) and its effect on protease activity. […] Protease incubated without WRK served as the control.

[8] = tested on: protease of Beauveria sp MTCC 5184; experiment: Modification of serine residue of protease by PMSF; settings: 28° C., 30 min
Procedure: This example illustrates the modification of serine residue of protease by PMSF and its effect on protease activity. […] Protease incubated without PMSF served as the control.

[9] = inhibitor 5 mM, pre-incubated 1 h, pH 8.0

C[S+](C)[O-] [DMSO, Dimethylsulphoxide]
Residual Activity (%) ([1]; 0 h, pH 7): 100.00%
Residual Activity (%) ([1]; 1 h, pH 7): 87.52%
Inhibition (%) ([2]; inhibitor 10%, pre-incubated 1 h, pH 8.0): 0.04%

c1ccccc1 [Benzene, benzene]
Residual Activity (%) ([1]; 0 h, pH 7): 100.00%
Residual Activity (%) ([1]; 1 h, pH 7): 61.85%
Residual Activity (%) ([1]; 2 h, pH 7): 40.66%

[Cl-].[Na+] [Na^+1]
Residual Activity (%) ([3]; 1 mM chloride salt): 100.94%
Residual Activity (%) ([3]; 10 mM chloride salt): 99.01%

1-butanol
Residual Activity (%) ([1]; 0 h, pH 7): 100.00%
Residual Activity (%) ([1]; 1 h, pH 7): 82.07%
Residual Activity (%) ([1]; 2 h, pH 7): 46.38%

N-tosyl-L-lysine chloromethyl ketone [TLCK]
Inhibition (%) [2, 9]: 12.12%

N=C(N)c1ccccc1 [Benzamidine]
Inhibition (%) [2, 9]: 3.62%

O=C1CCC(=O)N1Br [NBS, N-bromosuccinimide]
Inhibition (%) ([4]; 0.01 mM NBS, casein 0 mg): 87.06%
Inhibition (%) ([4]; 0.01 mM NBS, casein 1 mg): 84.85%
Inhibition (%) ([4]; 0.01 mM NBS, casein 2 mg): 69.95%
Inhibition (%) ([4]; 0.01 mM NBS, casein 3 mg): 64.09%
Inhibition (%) ([4]; 0.01 mM NBS, casein 4 mg): 48.93%
Inhibition (%) ([4]; 0.01 mM NBS, casein 5 mg): 43.25%
Inhibition (%) ([4]; 0.01 mM NBS, casein 6 mg): 38.03%
Inhibition (%) ([4]; 0.01 mM NBS, casein 7 mg): 34.06%
Inhibition (%) ([4]; 0.01 mM NBS, casein 8 mg): 24.25%
Inhibition (%) ([4]; 0.01 mM NBS, casein 9 mg): 16.27%
Inhibition (%) ([4]; 0.01 mM NBS, casein 10 mg): 16.28%
concentration at which complete inhibition was observed ([5]; 10 μM purified protease): 0.06 mM
Residual Activity (%) ([5]; NBS 0.01 mM): 20.39%
Residual Activity (%) ([5]; NBS 0.02 mM): 15.70%
Residual Activity (%) ([5]; NBS 0.03 mM): 12.55%
Residual Activity (%) ([5]; NBS 0.04 mM): 8.93%
Residual Activity (%) ([5]; NBS 0.05 mM): 7.08%
Residual Activity (%) ([5]; NBS 0.06 mM): 0%
Residual Activity (%) ([5]; NBS 0.07 mM): 0%
Residual Activity (%) ([5]; NBS 0.08 mM): 0%
Residual Activity (%) ([5]; NBS 0.09 mM): 0%
Residual Activity (%) ([5]; NBS 0.10 mM): 0%

OCCS [BME, β-mercapto ethanol]
activity retained ([6]; 10% BME, 28° C.): retained full activity

[Cd+2] [Cd^+2]
inhibition [3]: 3%
Residual Activity (%) ([3]; 1 mM chloride salt): 96.99%
Residual Activity (%) ([3]; 10 mM chloride salt): 63.50%

CC[n+]1ccc(-c2cccc(S(=O)(=O)[O-])c2)o1 [WRK, Woodward's reagent]
Inhibition (%) ([4]; 5 mM WRK, casein 0 mg): 75.26%
Inhibition (%) ([4]; 5 mM WRK, casein 1 mg): 66.03%
Inhibition (%) ([4]; 5 mM WRK, casein 2 mg): 59.32%
Inhibition (%) ([4]; 5 mM WRK, casein 3 mg): 53.22%
Inhibition (%) ([4]; 5 mM WRK, casein 4 mg): 45.06%
Inhibition (%) ([4]; 5 mM WRK, casein 5 mg): 40.25%
Inhibition (%) ([4]; 5 mM WRK, casein 6 mg): 31.10%
Inhibition (%) ([4]; 5 mM WRK, casein 7 mg): 26.27%
Inhibition (%) ([4]; 5 mM WRK, casein 8 mg): 19.32%
Inhibition (%) ([4]; 5 mM WRK, casein 9 mg): 12.87%
Inhibition (%) ([4]; 5 mM WRK, casein 10 mg): 8.72%
concentration at which complete inhibition was observed ([7]; 10 μM purified protease): 9 mM
Residual Activity (%) ([7]; WRK 1 mM): 86.08%
Residual Activity (%) ([7]; WRK 2 mM): 75.76%
Residual Activity (%) ([7]; WRK 3 mM): 61.47%
Residual Activity (%) ([7]; WRK 4 mM): 49.05%
Residual Activity (%) ([7]; WRK 5 mM): 34.66%
Residual Activity (%) ([7]; WRK 6 mM): 19.53%
Residual Activity (%) ([7]; WRK 7 mM): 11.69%
Residual Activity (%) ([7]; WRK 8 mM): 6.39%
Residual Activity (%) ([7]; WRK 9 mM): 0%
Residual Activity (%) ([7]; WRK 10 mM): 0%

[Cl][Cu][Cl] [Cu^+2]
inhibitory effect on the protease ([3]; 1 mM and 10 mM): no inhibitory effect
Residual Activity (%) ([3]; 1 mM chloride salt): 109.42%
Residual Activity (%) ([3]; 10 mM chloride salt): 100.02%

[Cl-].[Cl-].[Co+2] [Co^+2]
inhibitory effect on the protease ([3]; 1 mM and 10 mM): no inhibitory effect
Residual Activity (%) ([3]; 1 mM chloride salt): 103.86%
Residual Activity (%) ([3]; 10 mM chloride salt): 112.36%

ClC(Cl)Cl [Chloroform, chloroform]
Residual Activity (%) ([1]; 0 h, pH 7): 100.00%
Residual Activity (%) ([1]; 1 h, pH 7): 77.14%
Residual Activity (%) ([1]; 2 h, pH 7): 38.55%

[Hg+2] [Hg^+2]
inhibition [3]: 10%
Residual Activity (%) ([3]; 1 mM chloride salt): 90.38%
Residual Activity (%) ([3]; 10 mM chloride salt): 63.16%

CCO [Ethanol, ethanol]
Residual Activity (%) ([1]; 0 h, pH 7): 100.00%
Residual Activity (%) ([1]; 1 h, pH 7): 98.50%
Residual Activity (%) ([1]; 2 h, pH 7): 45.21%

CC(C)=O [Acetone, acetone]
Residual Activity (%) ([1]; 0 h, pH 7): 100.00%
Residual Activity (%) ([1]; 1 h, pH 7): 99.07%
Residual Activity (%) ([1]; 2 h, pH 7): 70.45%
Residual Activity (%) ([1]; 2 h, pH 7, listed as acetone): around 70%

[Ca+2].[Cl-].[Cl-] [Ca^+2]
activation of protease activity ([3]; 1 mM and 10 mM): no activation
Residual Activity (%) ([3]; 1 mM chloride salt): 92.99%
Residual Activity (%) ([3]; 10 mM chloride salt): 81.75%

O=C(O)CN(CCN(CC(=O)O)CC(=O)O)CC(=O)O [EDTA, ethylene-diaminetetraacetic acid]
Inhibition (%) ([2]; inhibitor 20 mM, pre-incubated 1 h, pH 8.0): 1.51%

CCCCCC [Hexane, hexane]
Residual Activity (%) ([1]; 0 h, pH 7): 100.00%
Residual Activity (%) ([1]; 1 h, pH 7): 76.18%
Residual Activity (%) ([1]; 2 h, pH 7): 29.43%

N-tosyl-L-phenylalanine chloromethyl ketone [TPCK]
Inhibition (%) [2, 9]: 7.33%

O=S(=O)(F)Cc1ccccc1 [PMSF, phenylmethylsulfonyl fluoride]
Inhibition (%) ([4]; 0.01 mM PMSF, casein 0 mg): 95.02%
Inhibition (%) ([4]; 0.01 mM PMSF, casein 1 mg): 74.91%
Inhibition (%) ([4]; 0.01 mM PMSF, casein 2 mg): 70.78%
Inhibition (%) ([4]; 0.01 mM PMSF, casein 3 mg): 64.06%
Inhibition (%) ([4]; 0.01 mM PMSF, casein 4 mg): 60.71%
Inhibition (%) ([4]; 0.01 mM PMSF, casein 5 mg): 52.65%
Inhibition (%) ([4]; 0.01 mM PMSF, casein 6 mg): 45.22%
Inhibition (%) ([4]; 0.01 mM PMSF, casein 7 mg): 41.73%
Inhibition (%) ([4]; 0.01 mM PMSF, casein 8 mg): 34.80%
Inhibition (%) ([4]; 0.01 mM PMSF, casein 9 mg): 31.56%
Inhibition (%) ([4]; 0.01 mM PMSF, casein 10 mg): 26.26%
concentration at which complete inhibition was observed ([8]; 10 μM purified protease): 0.025 mM
Residual Activity (%) ([8]; PMSF 0.005 mM): 45.65%
Residual Activity (%) ([8]; PMSF 0.010 mM): 8.78%
Residual Activity (%) ([8]; PMSF 0.015 mM): 3.76%
Residual Activity (%) ([8]; PMSF 0.020 mM): 1.74%
Residual Activity (%) ([8]; PMSF 0.025 mM): 0%
Residual Activity (%) ([8]; PMSF 0.030 mM): 0%
Residual Activity (%) ([8]; PMSF 0.035 mM): 0%
Residual Activity (%) ([8]; PMSF 0.040 mM): 0%
Residual Activity (%) ([8]; PMSF 0.045 mM): 0%
Residual Activity (%) ([8]; PMSF 0.050 mM): 0%

[Cl][Fe]([Cl])[Cl] [Fe^+3]
Residual Activity (%) ([3]; 1 mM chloride salt): 81.67%
Residual Activity (%) ([3]; 10 mM chloride salt): 82.66%

O=C(O)CI [Iodoacetate, iodoacetic acid]
Inhibition (%) ([2]; pH 8): 0.30%

Triton X-100
activity retained ([6]; 2% Triton X-100, 28° C.): 80%

CC(C)O [Isopropanol, isopropanol]
Residual Activity (%) ([1]; 0 h, pH 7): 100.00%
Residual Activity (%) ([1]; 1 h, pH 7): 71.26%
Residual Activity (%) ([1]; 2 h, pH 7): 46.16%

[Cl][Mn][Cl] [Mn^+2]
Residual Activity (%) ([3]; 1 mM chloride salt): 101.51%
Residual Activity (%) ([3]; 10 mM chloride salt): 73.98%

[Cl-].[K+] [K^+1]
Residual Activity (%) ([3]; 1 mM chloride salt): 91.71%
Residual Activity (%) ([3]; 10 mM chloride salt): 87.63%
